Key:
[1] = target: Aβ1-42 oligomers (Aβo) (Homo sapiens, UniProt P05067); format: binding
[2] = system: albumin; conditions: cited from earlier work
[3] = system: monomeric amyloid-β; conditions: cited from earlier work

Chain of Aβ1-42 oligomers (Aβo) (P05067 672-713): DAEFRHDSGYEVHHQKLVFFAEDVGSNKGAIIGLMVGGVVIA

C=C(c1ccc(C(=O)O)cc1)c1cc2c(cc1C)C(C)(C)CCC2(C)C [Bexarotene]
Highest% STD [1]: 14.60%

CC(C(=O)O)c1ccc(-c2ccccc2)c(F)c1 (stereo not drawn) [flurbiprofen]
bound to albumin [2]: > 99%

solanezumab
affinity for central epitope KLVFFAED [3]: picomolar affinity

Reference: PMC8179515 (Chemical Science, 2021)
